{"source": "patent US20070015138A1", "about": "“Methods for identifying agents and conditions that modulate neurogenesis” (BrainCells, Inc., priority 2005, published 2007)", "key": {"[1]": {"tested_on": "cultured human neural stem cells (hNSCs)", "assay": "Automated differentiation assay using monolayer cultures, neuronal lineage (Tuj1 staining per Hoechst-counted cell)", "format": "cell-based", "conditions": "for concentration at which the agent by itself affected neuronal differentiation / effect on differentiation along a neuronal lineage, agent by itself: no constitutive factor; for effect on differentiation along a neuronal lineage, agent by itself: normalized to neuronal positive control; for effect on neuronal differentiation, AMPA combined with M6: AMPA about 3 nM to about 10 μM plus 10 μM M6 (cyclo-(Pro-Gly)), FIG. 5; for EC50: Homo sapiens, Neural stem cell", "method": "(§1) Cells were cultured in mitogen free test media or exposed to differentiating agents as described herein immediately upon plating of cells. Stable, differentiation-compatible culture may be used with automated equipment (like Perkin Elmer Evolution P3, Perkin Elmer Multiprobe II Plus and Bio-Tek ELx405 Select CW as non-limiting examples) to replace 50% of media with newly prepared media and differentiation agent between 3 to 4 days after commencement of the experiment.\n(§2) Measurement of the resulting NSC differentiation may be performed by fixation and staining as described herein and subsequent use of automated equipment (InCell Analyzer high throughput imaging system) to take multiple pictures per well, at multiple wavelengths. Quantification of neuronal differentiation was performed by measuring the amount of Tuj1 staining and dividing the number by the number of cells as determined through automated counting of Hoechst stained cell nuclei. Quantification of astocytic differentiation was performed by measuring the amount of GFAP staining and dividing the number by the number of cells as determined through automated counting of Hoechst stained cell nuclei. […] An agent's effect on astrocyte or oligodendrocyte differentiation can be determined in a similar manner using other cell type specific antibodies, examples of which include GFAP (astrocytes), NF-200 (neurons), and O1 and O4 (oligodendrocytes)."}, "[2]": {"tested_on": "cultured human neural stem cells (hNSCs)", "assay": "Automated differentiation assay using monolayer cultures, astrocyte lineage (GFAP staining per Hoechst-counted cell)", "format": "cell-based", "conditions": "for effect on differentiation along an astrocyte lineage (astrogenesis), agent alone: normalized to astrocyte positive control", "method": "as §1, §2"}, "[3]": {"tested_on": "Human NSCs plated as monolayers", "method": "Human NSCs maintained as neurospheres are plated as monolayers on laminin/poly-L-lysine coated plates and assayed for proliferation and/or differentiation, as described in Examples 3 and 4, except that the test media is modified to include one or more neurotransmitters at various concentrations to facilitate detection of neurogenesis modulating agents. […] Proliferation is measured as the mean cell intensity per microscopic field of view, with the mean cell intensity for control experiments subtracted. Data is plotted as a dose response curve of dopamine with and without 2 independent concentrations of 5-HTP."}, "[4]": {"tested_on": "human NSCs cultured as monolayers in 96-well plates", "conditions": "DMSO vehicle max 0.3%, FIG. 8", "method": "Briefly, cells were cultured as described in Example 5 with the presence of histamine. The histamine was dissolved in DMSO as a vehicle, and cells were exposed to a maximum concentration of 0.3% vehicle. Cell number was determined by fixation and exposure of cells to Hoechst stain. Image acquisition was automated with the use of an InCell Analyzer 1000, and the number of cells determined by automated counting of stained nuclei. […] (see FIG. 8).\nToxic effects of agents can be determined in a similar manner. NSCs were exposed to BAY-60-7550 as described above and cell number was quantified."}, "[5]": {"tested_on": "human NSCs in monolayer culture", "assay": "Automated proliferation (growth or trophism) assay using monolayer cultures, test media with mitogens", "format": "cell-based", "conditions": "control conditions, across a range of concentrations; FIG. 1B", "method": "Sterile, tissue culture treated, clear bottom 96-well plates (e.g., Costar 3712) are coated 10 μg/ml poly-L-lysine and 50 μg/ml mouse Laminin, as described in Example 2. 10-15 neurospheres in maintenance media (see, Example 2) are transferred (estimated at 100,000 cells/sphere) to an eppendorf tube and enzymatically dissociated as described in Example 2. Approximately 50,000 cells are plated per 100 μl/well. The cells are allowed to attach by incubating for approximately one hour, and 100 μl/well of test compounds are added. […] Compounds are prepared using Perkin-Elmer MultiPROBE II PLUSHT EX (Protocol 8-point HumanCRC96-well) in test media (30% Hams F12 (Gibco 11765-062), 70% DMEM (Gibco 11965-118), 1% PSA (Gibco-BRL 15420-062), 1% N2 (Gibco-BRL 17502-048), 20 ng/ml EGF (Sigma E9644), 10 ng/ml LIF (Chemicon LIF100), 20 ng/ml bFGF (R and D 233-FB) and 5 μg/ml heparin (Sigma H3149)).\nEach plate contains controls containing test media (positive control) and test media without growth factors (negative control). Plates are incubated at 37° C. and 5% CO2 for a total of 7 days. At day 4, the cell plates are aspirated and fresh compound/media is added. After incubation, the wells are washed 1× with 0.1M Tris-Buffered Saline (TBS), and incubated at room temperature for 30 minutes with 100 μl/well of Fixing/Nuclear staining solution (8 μg/ml Hoechst 33342 and 3.7% Formaldehyde in 0.1M TBS). […]"}}, "note": "“Also recorded” adds a separate entry of the source. Where two headings read alike, the source gives them in different places.", "data": [{"compound": "N[C@@H](Cc1c[nH]c2ccc(O)cc12)C(=O)O", "note": "[5-HTP, 5-Hydroxy L tryptophan]", "values": [{"measurement": "concentration at which the agent by itself affected neuronal differentiation", "setting": "[1]", "value": "≥ 4", "unit": "µM"}, {"measurement": "effect on differentiation along a neuronal lineage, agent by itself", "setting": "[1]", "value": "increased differentiation of NSCs into neurons; also recorded: significantly enhanced neuronal differentiation"}]}, {"compound": "Cc1onc(O)c1CC(N)C(=O)O", "note": "(stereo not drawn) [AMPA, alpha-amino-3-hydroxy-5-methyl-4-isoxazolepropionic acid]", "values": [{"measurement": "effect on neuronal differentiation, AMPA combined with M6", "setting": "[1]", "value": "significantly enhanced levels of neuronal differentiation"}, {"measurement": "concentration at which the agent by itself affected neuronal differentiation", "setting": "[1]", "value": "about 30 μM"}, {"measurement": "effect on differentiation along a neuronal lineage, agent by itself", "setting": "[1]", "value": "only a slight effect"}]}, {"compound": "C[C@]12CC[C@H](O)CC1=CC[C@@H]1[C@@H]2CC[C@]2(C)C(=O)CC[C@@H]12", "note": "[DHEA]", "values": [{"measurement": "effect on differentiation along a neuronal lineage, agent by itself", "setting": "[1]", "value": "promotes differentiation"}]}, {"compound": "CC(N)Cc1ccccc1", "note": "(stereo not drawn) [amphetamine]", "values": [{"measurement": "EC50", "setting": "[1]; plus 10 μM dopamine, FIG. 2B, read-out: EC50, neuronal differentiation in combination with dopamine", "value": "~30", "unit": "µM"}, {"measurement": "effect on differentiation along a neuronal lineage, agent by itself", "setting": "[1]", "value": "did not have a significant effect"}, {"measurement": "effect on neuronal differentiation in combination with dopamine as constitutive factor", "setting": "[1]; plus 10 μM dopamine", "value": "significantly enhanced neuronal differentiation"}]}, {"compound": "O=C1CC2(CCCC2)CC(=O)N1CCCCN1CCN(c2ncccn2)CC1", "note": "[buspirone]", "values": [{"measurement": "effect on differentiation along a neuronal lineage, agent by itself", "setting": "[1]", "value": "promotes differentiation into both neurons and astrocytes"}, {"measurement": "effect on differentiation along an astrocyte lineage (astrogenesis), agent alone", "setting": "[2]", "value": "promotes differentiation into both neurons and astrocytes"}]}, {"compound": "NCCc1ccc(O)c(O)c1", "note": "[dopamine]", "values": [{"measurement": "concentration at which the agent by itself affected neuronal differentiation", "setting": "[1]", "value": "≥ 1", "unit": "µM"}, {"measurement": "effect on differentiation along a neuronal lineage, agent by itself", "setting": "[1]", "value": "minor effect; also recorded: only a slight effect"}, {"measurement": "effect on differentiation along a neuronal lineage, agent by itself", "setting": "[1]; listed as Dopamine", "value": "did not promote differentiation"}, {"measurement": "effect on neuronal differentiation in combination with 5-HTP as constitutive factor", "setting": "[1]; plus 10 μM or 30 μM 5-HTP, FIG. 4B", "value": "concentration-dependent increase in NSC differentiation; also recorded: significantly enhanced neuronal differentiation"}, {"measurement": "effect on NSC proliferation (mean cell intensity) with 10 μM 5-HTP", "setting": "[3]; in the presence of 10 μM 5-HTP", "value": "substantially enhanced"}, {"measurement": "effect on NSC proliferation (mean cell intensity) with 30 μM 5-HTP", "setting": "[3]; in the presence of 30 μM 5-HTP, particularly at higher test agent concentrations", "value": "further enhanced"}, {"measurement": "effect on NSC proliferation (mean cell intensity), test agent alone", "setting": "[3]; media-only background subtracted", "value": "small dose-dependent effect"}]}, {"compound": "NCCc1c[nH]cn1", "note": "[histamine]", "values": [{"measurement": "cell proliferation / cell growth (cell number), trophic effect", "setting": "[4]", "value": "promotes increased cell proliferation"}, {"measurement": "cell proliferation / cell growth (cell number), trophic effect", "setting": "[4]; listed as Histamine", "value": "promoted cell growth in a concentration-dependent manner"}]}, {"compound": "COc1ccc2[nH]cc(CCNC(C)=O)c2c1", "note": "[melatonin]", "values": [{"measurement": "effect on neuronal differentiation, buspirone with melatonin", "setting": "[1]; increasing melatonin added to buspirone concentration-response curve, FIG. 11 upper panel", "value": "differentiation into neurons is preserved"}, {"measurement": "effect on astrocyte differentiation, buspirone with melatonin", "setting": "[2]; increasing melatonin added to buspirone concentration-response curve, FIG. 11 lower panel", "value": "repression of astrocytes"}, {"measurement": "effect on differentiation along an astrocyte lineage (astrogenesis), agent alone", "setting": "[2]", "value": "no effect on astrogenesis"}]}, {"compound": "COC(=O)C(c1ccccc1)C1CCCCN1", "note": "(stereo not drawn) [methylphenidate]", "values": [{"measurement": "concentration at which the agent by itself affected neuronal differentiation", "setting": "[1]", "value": "greater than 1 μM"}, {"measurement": "effect on differentiation along a neuronal lineage, agent by itself", "setting": "[1]", "value": "only a slight effect"}, {"measurement": "effect on neuronal differentiation in combination with dopamine as constitutive factor", "setting": "[1]; plus 10 μM dopamine", "value": "significantly enhanced the degree of neuronal differentiation"}]}, {"compound": "CN1CC[C@]23c4c5ccc(O)c4O[C@H]2[C@@H](O)C=C[C@H]3[C@H]1C5", "note": "[morphine]", "values": [{"measurement": "effect on DHEA-driven normal NSC neuronal differentiation", "setting": "NSC monolayer culture; simultaneous exposure with DHEA", "value": "inhibition of normal NSC differentiation"}]}, {"compound": "O=C1CC[C@@]2(O)[C@H]3Cc4ccc(O)c5c4[C@@]2(CCN3CC2CC2)[C@H]1O5", "note": "[naltrexone]", "values": [{"measurement": "toxicity or proliferation (cell number dose-response)", "setting": "[5]", "value": "non-neurogenic (non-tropic) and non-toxic; also recorded: neither toxic nor trophic"}, {"measurement": "rescue of morphine-inhibited neuronal differentiation", "setting": "NSC monolayer culture; cells exposed to both morphine and naltrexone, FIG. 10", "value": "rescue of neurogenesis; also recorded: rescues opioid-induced inhibition"}]}, {"compound": "NC[C@H](O)c1ccc(O)c(O)c1", "note": "[norepinephrine]", "values": [{"measurement": "EC50", "setting": "[1]; mean of two independent experiments, FIG. 3A, read-out: EC50, neuronal differentiation, agent by itself", "value": "~4", "unit": "µM"}, {"measurement": "effect on differentiation along a neuronal lineage, agent by itself", "setting": "[1]", "value": "significantly enhanced neuronal differentiation"}, {"measurement": "effect on differentiation along an astrocyte lineage (astrogenesis), agent alone", "setting": "[2]", "value": "no effect"}]}, {"compound": "cyclo(Pro-Gly) [M6]", "values": [{"measurement": "effect on neuronal differentiation, AMPA combined with M6", "setting": "[1]", "value": "potentiates AMPA activity"}]}]}
